Source: PubChem BioAssay (NCI)
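Values below derive from 48-hour exposures of cells grown in 96-well plates, with endpoints linearly interpolated between the two concentrations bracketing the appropriate inhibition level. The concentration for full growth arrest is given as TGI.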

What was measured:
Test in all cases: growth of human tumour cells (NCI), 48 h
[1] = test system: SW-620 colon
[2] = test system: SF-539 CNS
[3] = test system: RXF-631 renal
[4] = test system: DMS 114 small cell lung
[5] = test system: HCT-15 colon
[6] = test system: HCT-116 colon
[7] = test system: RXF 393 renal
[8] = test system: RPMI-8226 leukemia
[9] = test system: SNB-75 CNS
[10] = test system: KM12 colon
[11] = test system: SNB-19 CNS
[12] = test system: COLO 205 colon
[13] = test system: UO-31 renal
[14] = test system: SK-MEL-28 melanoma
[15] = test system: HOP-18 NSCLC
[16] = test system: OVCAR-3 ovarian
[17] = test system: LXFL 529 NSCLC
[18] = test system: SN12C renal
[19] = test system: CAKI-1 renal
[20] = test system: M14 melanoma
[21] = test system: HCC-2998 colon
[22] = test system: OVCAR-5 ovarian
[23] = test system: OVCAR-4 ovarian
[24] = test system: NCI-H226 lung
[25] = test system: OVCAR-8 ovarian
[26] = test system: MALME-3M melanoma
[27] = test system: SK-MEL-2 melanoma
[28] = test system: NCI-H460 lung
[29] = test system: UACC-62 melanoma
[30] = test system: TK-10 renal
[31] = test system: SF-295 CNS
[32] = test system: SNB-78 CNS
[33] = test system: DLD-1 colon
[34] = test system: A549 NSCLC
[35] = test system: SR leukemia
[36] = test system: DMS 273 small cell lung
[37] = test system: KM20L2 colon
[38] = test system: EKVX NSCLC
[39] = test system: NCI-H522 lung
[40] = test system: M19-MEL melanoma
[41] = test system: IGROV1 ovarian
[42] = test system: U251 CNS
[43] = test system: 786-0 renal
[44] = test system: SF-268 CNS
[45] = test system: NCI-H23 lung
[46] = test system: MOLT-4 leukemia
[47] = test system: UACC-257 melanoma
[48] = test system: HOP-92 NSCLC
[49] = test system: SK-MEL-5 melanoma
[50] = test system: HL-60(TB) leukemia
[51] = test system: LOX IMVI melanoma
[52] = test system: CCRF-CEM leukemia
[53] = test system: XF 498 CNS
[54] = test system: SK-OV-3 ovarian
[55] = test system: ACHN renal
[56] = test system: HT29 colon
[57] = test system: K-562 leukemia
[58] = test system: HOP-62 NSCLC
[59] = test system: A498 renal

## CCOc1ccc([Se][Se]c2ccc(OCC)cc2)cc1
[1]
  TGI: > 100 µM
[2]
  TGI: > 100 µM
[3]
  TGI: > 100 µM
[4]
  TGI: > 100 µM
[5]
  TGI: > 100 µM
[6]
  TGI: > 100 µM
[7]
  TGI: > 100 µM
[8]
  TGI: > 100 µM
[9]
  TGI: > 100 µM
[10]
  TGI: > 100 µM
[11]
  TGI: > 100 µM
[12]
  TGI: > 100 µM
[13]
  TGI: > 100 µM
[14]
  TGI: > 100 µM
[15]
  TGI: > 100 µM
[16]
  TGI: > 100 µM
[17]
  TGI: > 100 µM
[18]
  TGI: > 100 µM
[19]
  TGI: 49.6 µM
[20]
  TGI: > 100 µM
[21]
  TGI: > 100 µM
[22]
  TGI: > 100 µM
[23]
  TGI: > 100 µM
[24]
  TGI: > 100 µM
[25]
  TGI: > 100 µM
[26]
  TGI: > 100 µM
[27]
  TGI: > 100 µM
[28]
  TGI: > 100 µM
[29]
  TGI: > 100 µM
[30]
  TGI: > 100 µM
[31]
  TGI: > 100 µM
[32]
  TGI: > 100 µM
[33]
  TGI: > 100 µM
[34]
  TGI: > 100 µM
[35]
  TGI: > 100 µM
[36]
  TGI: > 100 µM
[37]
  TGI: > 100 µM
[38]
  TGI: > 100 µM
[39]
  TGI: > 100 µM
[40]
  TGI: > 100 µM
[41]
  TGI: > 100 µM
[42]
  TGI: 96.8 µM
[43]
  TGI: > 100 µM
[44]
  TGI: > 100 µM
[45]
  TGI: 54.9 µM

## C[C@H](C(=O)C12CC3CC(CC(C3)C1)C2)[C@H](O)c1ccccc1
[1]
  TGI: > 100 µM
[2]
  TGI: 96.5 µM
[3]
  TGI: > 100 µM
[46]
  TGI: > 100 µM
[6]
  TGI: 32.3 µM
[7]
  TGI: 48.3 µM
[8]
  TGI: > 100 µM
[9]
  TGI: 75.9 µM
[10]
  TGI: 70.7 µM
[11]
  TGI: > 100 µM
[12]
  TGI: 28.3 µM
[13]
  TGI: 73.5 µM
[14]
  TGI: 31.4 µM
[15]
  TGI: > 100 µM
[16]
  TGI: 63.3 µM
[17]
  TGI: > 100 µM
[18]
  TGI: 36.1 µM
[47]
  TGI: 78.4 µM
[19]
  TGI: 91.2 µM
[20]
  TGI: > 100 µM
[22]
  TGI: 56.2 µM
[23]
  TGI: > 100 µM
[24]
  TGI: 36.5 µM
[48]
  TGI: 45.8 µM
[25]
  TGI: > 100 µM
[49]
  TGI: 32 µM
[27]
  TGI: 38.8 µM
[28]
  TGI: > 100 µM
[50]
  TGI: 58.1 µM
[29]
  TGI: > 100 µM
[30]
  TGI: > 100 µM
[51]
  TGI: 32 µM
[52]
  TGI: > 100 µM
[31]
  TGI: > 100 µM
[32]
  TGI: > 100 µM
[53]
  TGI: 67.7 µM
[33]
  TGI: > 100 µM
[54]
  TGI: > 100 µM
[34]
  TGI: > 100 µM
[55]
  TGI: > 100 µM
[35]
  TGI: 78.4 µM
[37]
  TGI: 43.9 µM
[38]
  TGI: > 100 µM
[39]
  TGI: 57.8 µM
[56]
  TGI: 34.1 µM
[41]
  TGI: > 100 µM
[57]
  TGI: > 100 µM
[43]
  TGI: 55.7 µM
[44]
  TGI: 30.2 µM
[45]
  TGI: > 100 µM

## O=C(CCc1nnc2s/c(=C\c3ccccc3[N+](=O)[O-])c(=O)n12)Nc1cc(Cl)c(Cl)cc1Cl
[2]
  TGI: 46 µM
[3]
  TGI: > 100 µM
[4]
  TGI: > 100 µM
[5]
  TGI: > 100 µM
[46]
  TGI: 71.6 µM
[6]
  TGI: 31.4 µM
[7]
  TGI: 57.6 µM
[9]
  TGI: 55.8 µM
[10]
  TGI: 43.4 µM
[11]
  TGI: 74.3 µM
[58]
  TGI: 64.1 µM
[12]
  TGI: > 100 µM
[13]
  TGI: 91.4 µM
[14]
  TGI: > 100 µM
[59]
  TGI: 53.6 µM
[15]
  TGI: 94.4 µM
[16]
  TGI: 35.8 µM
[17]
  TGI: 53.8 µM
[18]
  TGI: 63.8 µM
[47]
  TGI: > 100 µM
[20]
  TGI: > 100 µM
[21]
  TGI: > 100 µM
[22]
  TGI: > 100 µM
[23]
  TGI: 34.6 µM
[24]
  TGI: 40.6 µM
[48]
  TGI: 51.2 µM
[25]
  TGI: 89.9 µM
[49]
  TGI: > 100 µM
[26]
  TGI: > 100 µM
[27]
  TGI: > 100 µM
[28]
  TGI: 75.7 µM
[29]
  TGI: > 100 µM
[30]
  TGI: 87.9 µM
[51]
  TGI: 46.9 µM
[52]
  TGI: 82.6 µM
[31]
  TGI: 49.5 µM
[32]
  TGI: > 100 µM
[53]
  TGI: 58 µM
[33]
  TGI: 66.6 µM
[54]
  TGI: > 100 µM
[34]
  TGI: > 100 µM
[55]
  TGI: > 100 µM
[36]
  TGI: > 100 µM
[37]
  TGI: > 100 µM
[38]
  TGI: > 100 µM
[39]
  TGI: > 100 µM
[40]
  TGI: > 100 µM
[56]
  TGI: > 100 µM
[41]
  TGI: > 100 µM
[42]
  TGI: 30.8 µM
[57]
  TGI: 72 µM
[43]
  TGI: 31.3 µM
[44]
  TGI: 78.1 µM
[45]
  TGI: > 100 µM
